Reference: patent US20230105108A1, “COMPOUNDS FOR THE TREATMENT OF BACTERIAL INFECTIONS AND POTENTIATION OF ANTIBIOTICS” (GEORGIA STATE UNIVERSITY RESEARCH FOUNDATION, INC., priority 2019, published 2023)
Counter-ions that a name gives are not always drawn. Like-named read-outs stand apart in the source and are kept apart here.

Legend:
[1] = Cytotoxicity in H9c2 cells (CCK-8); assay type: cell-based; settings: rat, H9c2 cells; H9c2 cell line
Method in brief: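 H9c2 cells were grown in DMEM with 10% FBS, seeded the day before, and exposed to a range of di-amidine concentrations for 24 h at 37 °C, 5% CO2. Viability was read by CCK-8 after 3 h at 37 °C as absorbance at 450 nm.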

[2] = test system: MRSA (ATCC 33592); assay: MIC determination and sensitization fold on MRSA; assay type: cell-based, methicillin-resistant Staphylococcus aureus; settings: MRSA; for Sensitization fold: rifampicin
[3] = test system: M. smegmatis; assay: MIC on mycobacteria; assay type: cell-based, Mycobacterium smegmatis; settings: Mycolicibacterium smegmatis, read-out: MIC on mycobacteria
[4] = test system: HEK293 cells; assay: Cytotoxicity on mammalian cells (CCK-8), HEK293; assay type: cell-based; settings: for CC50: HEK293 cell line, 24 h; for IC50: Homo sapiens
Method in brief: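 Cells seeded a day ahead to ~80% confluency, exposed to varied compound concentrations for 24 h at 37° C, 5% CO2. CCK-8 added for a further 2 h and OD 450 nm read; viability expressed as percent of untreated control.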

[5] = test system: E. coli strain NR698; assay: Sensitization of outer membrane leaky E. coli strain NR698; assay type: cell-based
Protocol: Ery is short for erythromycin. […] E. coli NR698 was cultured with the antibiotic at various concentrations in the presence or absence of bacterial sensitizer for 24 h at 37° C. Then bacterial growth density was determined by measuring OD600. […] Then the growth density/% was calculated based on OD600.
Bacteria culture and MICs determination: Gram-negative bacteria were cultured in Mueller Hinton II cation-adjusted broth. Gram-positive bacteria were cultured in LB broth. Mycobacterium smegmatis was cultured in Middlebrook 7H9 Broth. MICs of antibiotics itself were determined by performing two-fold serial dilutions of antibiotics. MICs of antibiotics in the presence of bacterial sensitizers were determined by performing two-fold serial dilutions of antibiotics with or without a constant concentration of bacterial sensitizers. The MICs tests were performed on 96-well plates with a final volume of 200 μl Mueller Hinton II cation-adjusted broth in each well. Each well was inoculated with 5×10^5 CFU/ml bacteria and was incubated for 24 h at 37° C. with continuous shaking of 200 rpm. The bacterial density was then determined by OD600. Bacterial growth %=OD600 of antibiotic treatment group/OD600 of antibiotic non-treatment group. MICs was determined as the concentrations that inhibit more than 90% of bacteria growth.

[6] = test system: E. coli (lipid A part of LPS); assay: Dansyl-PMBN displacement assay; assay type: binding; settings: E. coli with 10 μM Dansyl-PMBN; sensitizer 0 to 200 μM
Protocol: Panel (C) depicts a Dansyl-PMBN displacement assay. […] The fluorescent intensity of 10 μM Dansyl-PMBN in HEPES buffer was recorded as baseline F0. Fluorescent intensity/%=(F1−Fx)/(F1−F0). […] All results are triplicates.
Dansyl-PMBN displacement assay. Dansyl-PMBN was synthesized according to literature procedure. Dansyl-PMBN was dissolved in H2O to make 500 μM stock. Bacterial sensitizers were dissolved in ethanol to make 10 mM stock solutions. […] The E. coli stock was centrifuged at 3000 g for 10 min, washed with HEPES buffer (pH=7.2) and then centrifuged again to obtain bacteria pallet. The pallet was then gently resuspended in HEPES buffer to obtain a E. coli suspension with OD600 about 0.3. The experiment was performed on 96-well plates. Each well was supplied with 100 μl coli suspension with 10 μM Dansyl-PMBN, then to each well, different concentrations of bacterial sensitizers were added to achieve a final concentration ranging from 0 to 200 μM.
Mg^2+ can bridge between adjacent lipid A and enhance the membrane integrity. […] This phenomenon was also observed on MD-100. The culture medium for E. coli is Muller Hinton Broth (Cation adjusted), which already has at least 0.5 mM Mg^2+, so the “zero concentration point of Mg^2+” in FIG. 4 represents the amount of exogenous Mg^2+, not the total Mg^2+ in the culture medium. […] A fluorescent conjugate of a polymyxin-B derivative (Dansyl-PMBN, Scheme 3), which would show increased fluorescent intensity after binding to the lipid A part of LPS, was used to further probe this issue. In the presence of another component that can also binding to lipid A, Dansyl-PMBN would be replaced, leading to decreased fluorescent intensity.

[7] = test system: E. coli; assay: Ex vivo skin burn infection model, wild-type E. coli; settings: human skin burn, hypromellose gel, 24 hours; 4‰ (w/w) novobiocin, 1.5‰ MD-124
Protocol: To achieve topical application, compounds were formulated as hypromellose gel. […] After that, skin was loaded with hypromellose gel with different antibiotics and cultured at 37° C. for 24 hours. After 24 hours incubation, the skin sample was homogenized and the supernatants were serially diluted and plated on agar plates, from which bacterial counts on the skin was calculated. […] 1‰ polymyxin B hypromellose gel was used as positive control.

| SMILES | CC50 at 24 h [1] | Sensitization fold ([2]; compound at 5 μM) | MIC ([2]; Staphylococcus aureus, 24 h, compound alone, read-out: MIC) | MIC ([3]; M. smegmatis) | CC50 [4] | IC50 ([4]; HEK293 cells (Table 6), read-out: IC50) | Sensitization fold ([5]; E. coli NR698 towards clarithromycin, 5 μg/ml sensitizer) | displacement of Dansyl-PMBN (fluorescent intensity) [6] | E. coli growth inhibition / bacterial load vs vehicle group [7] | Sensitization fold ([2]; compound at 6 μM) | MIC [3] | IC50 ([4]; HEK293) | sensitization of E. coli strain NR698 ([5]; erythromycin, MD-100, 24 h) |
| --- | --- | --- | --- | --- | --- | --- | --- | --- | --- | --- | --- | --- | --- |
| N=C(N)c1ccc(COc2cc(OCc3ccc(C(=N)N)cc3)cc(C(F)(F)F)c2)cc1 [MD-124, 4,4′-(((5-(trifluoromethyl)-1,3-phenylene)bis(oxy))bis(methylene)) dibenzimidamide dihydrochloride] | 50 µM | 32-fold at 5 μM | 10 µM | 12 µM | 100 µM | 100 µM | 4 fold | steadily decreased in a concentration dependent fashion | neither 4‰ (w/w) novobiocin nor 1.5‰ MD-124 themselves achieved significant E. coli growth inhibition |  |  |  |  |
| Cc1cc(COc2ccc(C(=N)N)cc2)cc(COc2ccc(C(=N)N)cc2)c1 [MD-100, 4,4′-(((5-methyl-1,3-phenylene)bis(methylene))bis(oxy))dibenzimidamide dihydrochloride] | 50 µM |  |  |  | 100 µM |  |  | able to displace Dansyl-PMBN although not as much as MD-124 |  | 32-fold at 6 μM | 12 µM | 100 µM | failed to sensitize |
